# Experimental data: paper PMC8286840, “Identifying SARS-CoV-2 antiviral compounds by screening for small molecule inhibitors of Nsp3 papain-like protease” (Biochemical Journal, 2021)
# Where a name gives a salt, the structure may show the parent alone. Read-outs that look alike come from different tables or passages of the source.
# Columns and labels:
# [1] = target: T1, SARS-CoV-2 PLpro (nsp3 1564–1878) (Severe acute respiratory syndrome coronavirus 2, UniProt P0DTD1); assay: biochemical; design: FRET-quenched peptide (Pro3) cleavage by PLpro, 10 min pre-incubation, slope over 20 min, normalised to no-compound control; settings: read-out: % of control remaining
# [2] = target: T1, SARS-CoV-2 PLpro (nsp3 1564–1878); assay: biochemical; design: FRET-quenched peptide (Pro3) cleavage by PLpro, 10 min pre-incubation, slope over 20 min, normalised to no-compound control; settings: read-out: % of control remaining; remark: listed apart in the source
smiles,measurement,setting,value
CCCn1c(C)c(C(=O)c2cccc3ccccc23)c2ccccc21 [JWH-015],remaining activity at 1.25 µM,[1],92.6%
same,remaining activity at 3.75 µM,[2],93.1%
CCCC(C)(C)c1ccc2c(c1)OC(C)(C)[C@@H]1CC=C(C)C[C@@H]21 [JWH-133],remaining activity at 1.25 µM,[1],102%
same,remaining activity at 3.75 µM,[2],104%
O=C(Oc1ccc([N+](=O)[O-])cc1)N1CCC(C(O)(c2ccc3c(c2)OCO3)c2ccc3c(c2)OCO3)CC1 [JZL184],remaining activity at 1.25 µM,"[1]; Well no.=8838, low concentration screen",92.7%
same,remaining activity at 3.75 µM,"[2]; Well no.=8838, high concentration screen",91.1%
O=C(Oc1ccc([N+](=O)[O-])cc1)N1CCN(Cc2cccc(Oc3ccccc3)c2)CC1 [JZL195],remaining activity at 1.25 µM,"[1]; Well no.=5512, low concentration screen",107%
same,remaining activity at 3.75 µM,"[2]; Well no.=5512, high concentration screen",108%
CC1=C2C(=O)[C@H]3[C@@H](CC=C4C[C@@H](O)CC[C@@]43C)[C@@H]2CC[C@]12O[C@@H]1C[C@H](C)CN[C@H]1[C@H]2C [Jervine],remaining activity at 1.25 µM,"[1]; Well no.=3367, low concentration screen",92%
same,remaining activity at 3.75 µM,"[2]; Well no.=3367, high concentration screen",96.2%
"COC(=O)[C@]1(O)C[C@@H]2O[C@@]1(C)n1c3ccccc3c3c4c(c5c6ccccc6n2c5c31)C(=O)NC4 [K-252a, Nocardiopsis sp.]",remaining activity at 1.25 µM,"[1]; Well no.=2552, low concentration screen",95.7%
same,remaining activity at 3.75 µM,"[2]; Well no.=2552, high concentration screen",95.2%
C=CC(=O)N1CCN(C(=O)CNc2cc(I)c(Cl)cc2O)CC1 [K-Ras(G12C) inhibitor 12],remaining activity at 1.25 µM,"[1]; Well no.=7951, low concentration screen",99.9%
same,remaining activity at 3.75 µM,"[2]; Well no.=7951, high concentration screen",90.4%
N=C(N)SCCc1ccc(OCc2ccc([N+](=O)[O-])cc2)cc1 [KB-R7943],remaining activity at 1.25 µM,"[1]; Well no.=5823, low concentration screen",105%
same,remaining activity at 3.75 µM,"[2]; Well no.=5823, high concentration screen",106%
O=S(=O)(NCCSSCCNS(=O)(=O)c1cc(Cl)ccc1Cl)c1cc(Cl)ccc1Cl [KC7F2],remaining activity at 1.25 µM,"[1]; Well no.=8580, low concentration screen",107%
same,remaining activity at 3.75 µM,"[2]; Well no.=8580, high concentration screen",102%
NC(=O)c1ccc(-c2cc(-c3ccc([N+](=O)[O-])cc3)nc(-c3ccco3)c2)cc1 [KJ Pyr 9],remaining activity at 1.25 µM,"[1]; Well no.=6346, low concentration screen",99.3%
same,remaining activity at 3.75 µM,"[2]; Well no.=6346, high concentration screen",101%
CN([C@@H](Cc1ccc(OS(=O)(=O)c2cccc3cnccc23)cc1)C(=O)N1CCN(c2ccccc2)CC1)S(=O)(=O)c1cccc2cnccc12 [KN-62],remaining activity at 1.25 µM,"[1]; Well no.=670, low concentration screen",97.4%
same,remaining activity at 1.25 µM,"[1]; Well no.=2308, low concentration screen",99.3%
same,remaining activity at 3.75 µM,"[2]; Well no.=670, high concentration screen",95.8%
same,remaining activity at 3.75 µM,"[2]; Well no.=2308, high concentration screen",99%
COc1ccc(S(=O)(=O)Nc2ccccc2CN(C)C/C=C/c2ccc(Cl)cc2)cc1 [KN-92],remaining activity at 1.25 µM,"[1]; Well no.=2483, low concentration screen",96.3%
same,remaining activity at 3.75 µM,"[2]; Well no.=2483, high concentration screen",94.2%
COc1ccc(S(=O)(=O)N(CCO)c2ccccc2CN(C)C/C=C/c2ccc(Cl)cc2)cc1 [KN-93],remaining activity at 1.25 µM,"[1]; Well no.=2556, low concentration screen",103%
same,remaining activity at 3.75 µM,"[2]; Well no.=2556, high concentration screen",102%
O=CN1CC/C(=C\c2ccc3c(c2)OCO3)C1=O [KNK437],remaining activity at 1.25 µM,"[1]; Well no.=8768, low concentration screen",92.1%
same,remaining activity at 3.75 µM,"[2]; Well no.=8768, high concentration screen",89.6%
O=C(Nc1ccccc1C(=O)Nc1ccc(CCO)cc1)c1ccc([N+](=O)[O-])cc1 [KS-176],remaining activity at 1.25 µM,"[1]; Well no.=5911, low concentration screen",101%
same,remaining activity at 3.75 µM,"[2]; Well no.=5911, high concentration screen",102%
CCCCCCOC(=O)[C@]1(O)C[C@@H]2O[C@@]1(C)n1c3ccccc3c3c4c(c5c6ccccc6n2c5c31)C(=O)NC4 [KT5720],remaining activity at 1.25 µM,"[1]; Well no.=2481, low concentration screen",105%
same,remaining activity at 3.75 µM,"[2]; Well no.=2481, high concentration screen",109%
COc1ccc(-c2ccc3c(N4CCOCC4)nc(N4C[C@@H](C)O[C@@H](C)C4)nc3n2)cc1CO [KU0063794],remaining activity at 1.25 µM,"[1]; Well no.=2899, low concentration screen",105%
same,remaining activity at 3.75 µM,"[2]; Well no.=2899, high concentration screen",103%
O=c1cc(-c2cccc3c2Sc2ccccc2S3)oc(N2CCOCC2)c1 [KU 55933 - 2-(4-Morpholinyl)-6-(1-thianthrenyl)-4H-pyran-4-one],remaining activity at 1.25 µM,"[1]; Well no.=2438, low concentration screen",101%
same,remaining activity at 3.75 µM,"[2]; Well no.=2438, high concentration screen",103%
C[C@@H]1CN(CC(=O)Nc2ccc3c(c2)Cc2cccc(-c4cc(=O)cc(N5CCOCC5)o4)c2S3)C[C@H](C)O1 [KU-60019],remaining activity at 1.25 µM,"[1]; Well no.=5299, low concentration screen",93.8%
same,remaining activity at 3.75 µM,"[2]; Well no.=5299, high concentration screen",85.8%
O=C(c1ccc(/C=C/c2n[nH]c3ccccc23)cc1)N1CCNCC1 [KW 2449],remaining activity at 1.25 µM,"[1]; Well no.=5108, low concentration screen",102%
same,remaining activity at 3.75 µM,"[2]; Well no.=5108, high concentration screen",107%
CCc1c(O)cc(O)c(C(=O)c2ccc(OCCN3CCOCC3)c(OC)c2)c1CC(=O)N(CCOC)CCOC [KW-2478],remaining activity at 1.25 µM,"[1]; Well no.=5342, low concentration screen",93.8%
same,remaining activity at 3.75 µM,"[2]; Well no.=5342, high concentration screen",94.5%
O=C(Cc1ccc(-c2ccc(OCCN3CCOCC3)cc2)cn1)NCc1ccccc1 [KX2-391],remaining activity at 1.25 µM,"[1]; Well no.=5350, low concentration screen",94.7%
same,remaining activity at 3.75 µM,"[2]; Well no.=5350, high concentration screen",94.3%
COc1ccc(CCC(=O)Nc2nc3ccc(Cl)cc3s2)cc1OC [KY02111],remaining activity at 1.25 µM,"[1]; Well no.=4782, low concentration screen",105%
same,remaining activity at 3.75 µM,"[2]; Well no.=4782, high concentration screen",98.2%
C[C@@H]1O[C@@H](O[C@H]2[C@H](Oc3cc(O)c4c(=O)c(O)c(-c5ccc(O)cc5)oc4c3)O[C@H](CO)[C@@H](O)[C@@H]2O)[C@H](O)[C@H](O)[C@H]1O [Kaempferol-7-neohesperidoside],remaining activity at 1.25 µM,"[1]; Well no.=3307, low concentration screen",102%
same,remaining activity at 3.75 µM,"[2]; Well no.=3307, high concentration screen",103%
O=c1c(O)c(-c2ccc(O)cc2)oc2cc(O)cc(O)c12 [Kaempferol],remaining activity at 1.25 µM,"[1]; Well no.=3426, low concentration screen",89.4%
same,remaining activity at 1.25 µM,"[1]; Well no.=6246, low concentration screen",105%
same,remaining activity at 3.75 µM,"[2]; Well no.=3426, high concentration screen",90.3%
same,remaining activity at 3.75 µM,"[2]; Well no.=6246, high concentration screen",109%
CC(=O)OC[C@@]1(O)CC23CC[C@@H]4c5ccoc5C=C[C@@]4(C)[C@@H]2CC[C@@H]1C3 [Kahweol Acetate],remaining activity at 1.25 µM,"[1]; Well no.=3489, low concentration screen",102%
same,remaining activity at 3.75 µM,"[2]; Well no.=3489, high concentration screen",103%
C=C(C)[C@H]1CN[C@H](C(=O)O)[C@H]1CC(=O)O [Kainic acid],remaining activity at 1.25 µM,"[1]; Well no.=829, low concentration screen",106%
same,remaining activity at 1.25 µM,"[1]; Well no.=7792, low concentration screen",105%
same,remaining activity at 3.75 µM,"[2]; Well no.=829, high concentration screen",105%
same,remaining activity at 3.75 µM,"[2]; Well no.=3369, high concentration screen",104%
same,remaining activity at 3.75 µM,"[2]; Well no.=7792, high concentration screen",102%
NC[C@H]1O[C@H](O[C@H]2[C@H](O)[C@@H](O[C@H]3O[C@H](CO)[C@@H](O)[C@H](N)[C@H]3O)[C@H](N)C[C@@H]2N)[C@H](O)[C@@H](O)[C@@H]1O [Kanamycin sulfate],remaining activity at 1.25 µM,"[1]; Well no.=3428, low concentration screen",97.3%
same,remaining activity at 3.75 µM,"[2]; Well no.=3428, high concentration screen",96.2%
CCN1C[C@]2(C)CC[C@H](O)[C@]34C1[C@@H](C[C@H]23)[C@@]1(O)C[C@H](OC)[C@H]2C[C@@H]4[C@@H]1[C@H]2O [Karakoline],remaining activity at 1.25 µM,"[1]; Well no.=831, low concentration screen",102%
same,remaining activity at 1.25 µM,"[1]; Well no.=3157, low concentration screen",111%
same,remaining activity at 3.75 µM,"[2]; Well no.=831, high concentration screen",99.5%
same,remaining activity at 3.75 µM,"[2]; Well no.=3157, high concentration screen",103%
O=C(O)c1ccccc1C(=O)Nc1ccc(-c2ccccc2)cc1 [Kartogenin],remaining activity at 1.25 µM,"[1]; Well no.=5620, low concentration screen",91.3%
same,remaining activity at 3.75 µM,"[2]; Well no.=5620, high concentration screen",96.3%
O=C1Cc2c([nH]c3ccc(Br)cc23)-c2ccccc2N1 [Kenpaullone],remaining activity at 1.25 µM,"[1]; Well no.=783, low concentration screen",102%
same,remaining activity at 1.25 µM,"[1]; Well no.=2554, low concentration screen",104%
same,remaining activity at 3.75 µM,"[2]; Well no.=783, high concentration screen",102%
same,remaining activity at 3.75 µM,"[2]; Well no.=2554, high concentration screen",100%
COc1cc(Nc2ncc3ccn(-c4cccc(CCC#N)c4)c3n2)cc(OC)c1OC [Keratinocyte Differentiation Inducer],remaining activity at 1.25 µM,"[1]; Well no.=2379, low concentration screen",101%
same,remaining activity at 3.75 µM,"[2]; Well no.=2379, high concentration screen",103%
